Results on one compound are retold here after ChEMBL document CHEMBL4145469, “Part II: New candidates of pyrazole-benzimidazole conjugates as checkpoint kinase 2 (Chk2) inhibitors” (Eur J Med Chem, 2018).

The data set can be described thus: Toxicity in Sprague-Dawley rat assessed as mortality administered as po single dose measured up to 1 month post dose. To be noted: in vivo. Format: organism-based.

By LD50 is commonly meant the dose expected to kill half of the subjects tested. For `Cc1nn(-c2ccccc2)c(Oc2ccc(-c3nc4cc([N+](=O)[O-])ccc4[nH]3)cc2)c1/C=N/NC(N)=O`, the LD50 at 1 month turned out to be 500 mg/kg.
